Data published in ChEMBL document CHEMBL2390850, “New azole antagonists with high affinity for the P2Y(1) receptor” (Bioorg Med Chem Lett, 2013).

Tests used:
P2Y purinoceptor 1 = P2Y purinoceptor 1 (Homo sapiens, UniProt P47900); test: Displacement of [beta-33P]-2MeS-ADP from human P2Y1 receptor expressed in HEK293 cells after 1 hr by scintillation counting analysis; type: cell-based
[1] = Plasma protein binding in human; type: ADME, cell-free; conditions: read-out: PPB (converted)
[2] = Solubility of the compound at pH 6.5; type: physicochemical; conditions: buffer
[3] = Antiplatelet activity in human platelet-rich plasma assessed as inhibition of ADP-induced platelet aggregation; type: functional, cell-free
[4] = Lipophilicity, log P of the compound by HPLC analysis; type: physicochemical
[5] = Antiplatelet activity in human platelet-rich plasma assessed as inhibition of ADP-induced platelet aggregation relative to untreated control; type: functional

Chain of P2Y purinoceptor 1 (P47900 whole entry): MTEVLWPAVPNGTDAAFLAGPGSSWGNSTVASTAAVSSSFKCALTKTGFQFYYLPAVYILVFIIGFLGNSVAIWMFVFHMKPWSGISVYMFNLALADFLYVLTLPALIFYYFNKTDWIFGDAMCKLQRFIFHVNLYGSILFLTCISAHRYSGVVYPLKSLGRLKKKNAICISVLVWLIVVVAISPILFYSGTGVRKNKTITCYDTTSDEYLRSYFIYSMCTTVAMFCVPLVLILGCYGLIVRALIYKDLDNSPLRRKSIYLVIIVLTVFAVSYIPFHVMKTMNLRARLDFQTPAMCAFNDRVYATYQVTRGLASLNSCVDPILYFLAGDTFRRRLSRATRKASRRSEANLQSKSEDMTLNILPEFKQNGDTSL

Row | Structure (SMILES) | Ki (P2Y purinoceptor 1) [nM] | further results
1 | CC(C)(C)c1ccccc1Oc1ncccc1Nc1nnc(-c2ccc3ccccc3c2)s1 | 18 | –
2 | CC(C)(C)c1ccccc1Oc1ncccc1Nc1nsc(-c2ccccc2)n1 | 1500 | –
3 | CCOC(=O)c1nnc(Nc2cccnc2Oc2ccccc2C(C)(C)C)s1 | 90 | –
4 | CC(C)(C)c1ccccc1Oc1ncccc1Nc1nnc(-c2ccc(OC(F)(F)F)cc2)s1 | 10 | –
5 | CC(C)(C)c1ccccc1Oc1ncccc1Nc1nnc(-c2ccccn2)s1 | 21 | –
6 | CC(C)(C)c1ccccc1Oc1ncccc1NC(=O)Nc1ccc(OC(F)(F)F)cc1 | – | fraction unbound [1]: 0.007
7 | CC(C)(C)c1ccccc1Oc1ncccc1Nc1nnc(-c2ccc(C(F)(F)F)cc2)s1 | 7 | solubility [2]: < 1 µg/mL; IC50 [3]: 7500 nM; logP [4]: 6
8 | CC(C)(C)c1ccccc1Oc1ncccc1Nc1ncc(-c2ccccc2)o1 | 59 | –
9 | CN(C)c1ccc(-c2nnc(Nc3cccnc3Oc3ccccc3C(C)(C)C)s2)cc1 | 27 | –
10 | CN(C)Cc1cccc(-c2nnc(Nc3cccnc3Oc3ccccc3C(C)(C)C)s2)c1 | 670 | –
11 | CC(C)(C)c1ccccc1Oc1ncccc1Nc1nnc(-c2ccccc2)o1 | 70 | –
12 | CC(C)(C)c1ccccc1Oc1ncccc1Nc1cc(-c2ccccc2)no1 | 23 | –
13 | CC(C)(C)c1ccccc1Oc1ncccc1Nc1nnc(-c2cccnc2)s1 | 340 | –
14 | CC(C)(C)c1ccccc1Oc1ncccc1N=C1NCC(c2ccccc2)O1 (stereo not drawn) | 2500 | –
15 | CC(C)(C)c1ccccc1Oc1ncccc1Nc1nnc(-c2ccccc2)s1 | 11 | IC50 [3]: 13000 nM; logP [4]: 5.01
16 | Cn1nc(-c2ccccc2)cc1Nc1cccnc1Oc1ccccc1C(C)(C)C | > 36000 | –
17 | CC(C)(C)c1ccccc1Oc1ncccc1Nc1cc(-c2ccccc2)on1 | 19 | –
18 | CN(C)Cc1ccc(-c2nnc(Nc3cccnc3Oc3ccccc3C(C)(C)C)s2)cc1 | 250 | –
19 | CC(C)(C)c1ccccc1Oc1ncccc1Nc1nc(-c2ccccc2)ns1 | 25 | –
20 | CN(C)c1cccc(-c2nnc(Nc3cccnc3Oc3ccccc3C(C)(C)C)s2)c1 | 55 | –
21 | CC(C)(C)c1ccccc1Oc1ncccc1Nc1noc(-c2ccccc2)n1 | 410 | –

The next lines start with results.

Row | Ki (P2Y purinoceptor 1) [nM] | Structure (SMILES) | further results
22 | 2900 | CC(C)(C)c1ccccc1Oc1ncccc1Nc1nnc(C(=O)O)s1 | –
23 | 2730 | CC(C)(C)c1ccccc1Oc1ncccc1Nc1nncs1 | –
24 | 41 | CC(C)(C)c1ccccc1Oc1ncccc1NC(=O)Nc1ccccc1 | inhibition (INH) [5]: 95%
25 | 275 | CC(C)(C)c1ccccc1Oc1ncccc1Nc1nnc(-c2ccncc2)s1 | IC50 [3]: 29000 nM
26 | 870 | CC(C)(C)c1ccccc1Oc1ncccc1Nc1cc(-c2ccccc2)n[nH]1 | –
27 | 45 | Cn1nc(Nc2cccnc2Oc2ccccc2C(C)(C)C)cc1-c1ccccc1 | –
28 | 15 | CC(C)(C)c1ccccc1Oc1ncccc1Nc1ncc(-c2ccccc2)s1 | logP [4]: 5.98
29 | 15 | CC(C)(C)c1ccccc1Oc1ncccc1NC(=O)Nc1ccc(C(F)(F)F)cc1 | IC50 [3]: 12600 nM
